± gives the uncertainty stated by the source.
What was measured:
Experiment in all cases: mass response relative to vehicle control (EMD distance of treated vs reference mass distribution minus control baseline) (% of mean reference cell mass); higher = larger drug-induced change in single-cell mass distribution (stronger response)
[1] = test system: PC9
Procedure: (§1)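 Cancer cell lines were treated in vitro with drugs at the listed doses (about 24 h; 0.25% DMSO vehicle). Single-cell buoyant mass was measured on suspended microchannel resonator instruments with CNN image curation, 2500 cells per condition. Mass response is the Earth Mover's Distance to vehicle-treated reference cells as % of mean reference mass.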

[2] = test system: MOLM-13
Procedure: as §1

[3] = test system: MM1S ATCC
Procedure: as §1

[4] = test system: MDA-MB-361
Procedure: as §1

CN(C)C/C=C/C(=O)Nc1cc2c(Nc3ccc(F)c(Cl)c3)ncnc2cc1O[C@H]1CCOC1 [Afatinib]
mass response ([1]; 0.01 µM): 13.3 ± 4
mass response ([1]; 0.1 µM): 15.8 ± 1.3
mass response ([1]; 1 µM): 19.1 ± 1.6
mass response ([1]; 10 µM): 30.7 ± 4

CC1(COc2ccc3c(c2)ncn3-c2ccc3cccc(N4CCC(N)CC4)c3n2)COC1 [Crenolanib]
mass response ([2]; 0.001 µM): 3.34 ± 2
mass response ([2]; 0.01 µM): 31 ± 1.7
mass response ([2]; 0.1 µM): 37.3 ± 0.76
mass response ([2]; 1 µM): 37.99 ± 0.31

C/C(=C\c1csc(C)n1)[C@@H]1C[C@@H]2O[C@]2(C)CCC[C@H](C)[C@H](O)[C@@H](C)C(=O)C(C)(C)[C@@H](O)CC(=O)N1 [Ixabepilone]
mass response ([1]; 0.01 µM): 19.5 ± 1.5
mass response ([1]; 0.1 µM): 37.6 ± 4.5
mass response ([1]; 1 µM): 36.7 ± 4.5
mass response ([1]; 10 µM): 36.8 ± 5.7

O=C(/C=C\n1cnc(-c2cc(C(F)(F)F)cc(C(F)(F)F)c2)n1)NNc1cnccn1 [Selinexor]
mass response ([3]; 0.005 µM): -0.878 ± 0.35
mass response ([3]; 0.05 µM): 4.05 ± 1.2
mass response ([3]; 0.5 µM): 12.7 ± 3.1
mass response ([3]; 5 µM): 12 ± 3.1

O=C(O)C1(C(=O)O)CCC1.[NH2-].[NH2-].[Pt+2] [Carboplatin]
mass response ([1]; 0.1 µM): -0.849 ± 1.3
mass response ([1]; 1 µM): 1.45 ± 5.4
mass response ([1]; 10 µM): 11.1 ± 3.2
mass response ([1]; 0.0001 M): 25.9 ± 5.4

Cn1ncnc1[C@H]1c2n[nH]c(=O)c3cc(F)cc(c23)N[C@@H]1c1ccc(F)cc1 [Talazoparib]
mass response ([4]; 0.2 µM): 8.83 ± 4.3
mass response ([4]; 2 µM): 8.66 ± 2.9
mass response ([4]; 20 µM): 11.8 ± 3.6
mass response ([4]; 50 µM): 13.1 ± 6.4

Nc1cccc2c1C(=O)N(C1CCC(=O)NC1=O)C2=O (stereo unspecified) [Pomalidomide]
mass response ([3]; 0.02 µM): 8.45 ± 2.3
mass response ([3]; 0.2 µM): 18.1 ± 5.3
mass response ([3]; 2 µM): 17.1 ± 5.7
mass response ([3]; 20 µM): 16.7 ± 3.2

C[C@@H]1C[C@H]2[C@@H]3CCC4=CC(=O)C=C[C@]4(C)[C@@]3(F)[C@@H](O)C[C@]2(C)[C@@]1(O)C(=O)CO [Dexamethasone]
mass response ([3]; 0.02 µM): 13.7 ± 1.9
mass response ([3]; 0.2 µM): 14.8 ± 2.1
mass response ([3]; 2 µM): 14.5 ± 2
mass response ([3]; 20 µM): 13.5 ± 2

N[C@@H](Cc1ccc(N(CCCl)CCCl)cc1)C(=O)O [Melphalan]
mass response ([3]; 0.1 µM): 9.64 ± 4.4
mass response ([3]; 1 µM): 17.5 ± 4.6
mass response ([3]; 10 µM): 12.9 ± 2.5
mass response ([3]; 50 µM): 29.6 ± 1.6

COc1cc2ncnc(Nc3ccc(F)c(Cl)c3)c2cc1OCCCN1CCOCC1 [Gefitinib]
mass response ([1]; 0.05 µM): 7.94 ± 10
mass response ([1]; 0.5 µM): 23.1 ± 11
mass response ([1]; 5 µM): 35.1 ± 9.7
mass response ([1]; 50 µM): 81.56 ± 0.43

Nc1ncn([C@@H]2O[C@H](CO)[C@@H](O)[C@H]2O)c(=O)n1 [5-Azacytidine]
mass response ([2]; 0.1 µM): 1.27 ± 0.26
mass response ([2]; 1 µM): 10.1 ± 1.9
mass response ([2]; 10 µM): 35.2 ± 2.8
mass response ([2]; 0.0001 M): 36.45 ± 0.22

Nc1nc2[nH]cc(CCc3ccc(C(=O)N[C@@H](CCC(=O)O)C(=O)O)cc3)c2c(=O)[nH]1 [Pemetrexed]
mass response ([4]; 0.5 µM): 14.4 ± 3.6
mass response ([4]; 1 µM): 15.2 ± 2.1
mass response ([4]; 5 µM): 19 ± 2.9
mass response ([4]; 50 µM): 21.8 ± 2.8

COc1cc2ncnc(Nc3ccc(F)c(Cl)c3)c2cc1NC(=O)/C=C/CN1CCCCC1 [Dacomitinib]
mass response ([1]; 0.5 µM): 14.47 ± 0.087
mass response ([1]; 5 µM): 25.2 ± 0.96
mass response ([1]; 20 µM): 55.6 ± 1.2
mass response ([1]; 50 µM): 62.57 ± 0.055

CC(=O)O[C@H]1C(=O)[C@@]2(C)[C@H]([C@H](OC(=O)c3ccccc3)[C@]3(O)C[C@H](OC(=O)[C@H](O)[C@@H](NC(=O)c4ccccc4)c4ccccc4)C(C)=C1C3(C)C)[C@]1(OC(C)=O)CO[C@@H]1C[C@@H]2O [Paclitaxel]
mass response ([1]; 0.005 µM): 0.247 ± 0.78
mass response ([1]; 0.025 µM): 26.9 ± 1.3
mass response ([1]; 0.05 µM): 30.7 ± 0.9
mass response ([1]; 0.1 µM): 30.6 ± 1.4

COc1cccc2c1C(=O)c1c(O)c3c(c(O)c1C2=O)C[C@@](O)(C(=O)CO)C[C@@H]3O[C@H]1C[C@H](N)[C@H](O)[C@H](C)O1 [Doxorubicin]
mass response ([1]; 0.15 µM): 33.3 ± 6.1
mass response ([1]; 0.625 µM): 22.9 ± 4.7
mass response ([1]; 2.5 µM): 6.7 ± 3
mass response ([1]; 10 µM): 40.9 ± 3.2

O=C(c1cc(Cc2n[nH]c(=O)c3ccccc23)ccc1F)N1CCN(C(=O)C2CC2)CC1 [Olaparib]
mass response ([4]; 0.1 µM): 1.31 ± 3.8
mass response ([4]; 1 µM): 1.01 ± 3.2
mass response ([4]; 10 µM): 17.9 ± 9.6
mass response ([4]; 0.0001 M): 25 ± 4

C#Cc1cccc(Nc2ncnc3cc(OCCOC)c(OCCOC)cc23)c1 [Erlotinib]
mass response ([1]; 0.01 µM): 0.55 ± 1.1
mass response ([1]; 0.1 µM): 15.4 ± 1.5
mass response ([1]; 1 µM): 17.2 ± 0.41
mass response ([1]; 10 µM): 24.6 ± 1.6

CC(C)C[C@H](NC(=O)[C@H](CCc1ccccc1)NC(=O)CN1CCOCC1)C(=O)N[C@@H](Cc1ccccc1)C(=O)N[C@@H](CC(C)C)C(=O)[C@@]1(C)CO1 [Carfilzomib]
mass response ([3]; 0.005 µM): 10.7 ± 4.9
mass response ([3]; 0.05 µM): 31 ± 2.6
mass response ([3]; 0.1 µM): 34.7 ± 2
mass response ([3]; 0.5 µM): 33.4 ± 2.5

CNC(=O)c1cc(Oc2ccc(NC(=O)Nc3ccc(Cl)c(C(F)(F)F)c3)cc2)ccn1 [Sorafenib]
mass response ([2]; 0.0005 µM): -1.17 ± 0.94
mass response ([2]; 0.005 µM): 10.6 ± 1
mass response ([2]; 0.05 µM): 32 ± 0.86
mass response ([2]; 0.5 µM): 35.2 ± 0.46

Source: the supplement of paper PMC9701192
